1 compound from patent US8889709B2, “Use of isoQC inhibitors in the treatment and prevention of inflammatory diseases or conditions” (Probiodrug AG, priority 2006, dated 2014) can be followed below.

Where two headings read alike, the source gives them in different places.

The target of assay [1] is human isoQC (Homo sapiens, UniProt Q9NXS2). In words: Inhibitor assay, human isoQC (Ki/IC50, competitive inhibition).
Protocol: (§1) All measurements were performed with a NovoStar reader for microplates (BMG Labtechnologies) at 30° C. […] Excitation/emission wavelengths were 320/410 nm.
(§2) Kinetic data were evaluated using GraFit software.
Assay [2] deals with human isoQC. The description is as above. The following applies: isoQC vs human QC.
Protocol: as §1, §2

On to `COc1ccc(NC(=S)NCCCn2ccnc2)cc1OC.Cl` [1-(3-(1H-imidazol-1-yl)propyl)-3-(3,4-dimethoxyphenyl)thiourea hydrochloride], for which the Ki – broadly, the dissociation constant of the complex between target and ligand, obtained from inhibition or displacement – came out at 480 ± 30 nM in assay [1] and 240 nM in assay [1] (read-out: Ki-value, inhibition of human isoQC-catalyzed conversion of H-Gln-AMC into pGlu-AMC, FIG. 1, Michaelis-Menten model, linear competitive inhibition, inhibitor 0-5 μM). Also, the “drop in Ki, human isoQC compared with human QC” value in assay [2] came out at 10 fold.
